Test results taken from paper PMC12486440, “Design, synthesis, and in silico studies of new benzofuran–pyrazole hybrids as multi-kinase inhibitors with potential antiproliferative activity” (RSC Advances, 2025).

Legend:
[1] = test system: Melanoma subpanel; test: NCI 60 subpanel summary; assay type: cell-based, human
[2] = test system: Ovarian cancer subpanel; test: NCI 60 subpanel summary; assay type: cell-based, human
[3] = test system: Renal cancer subpanel; test: NCI 60 subpanel summary; assay type: cell-based, human
[4] = test system: Breast cancer subpanel; test: NCI 60 subpanel summary; assay type: cell-based, human
[5] = test system: MCF-7 cancer cells; test: Cell cycle analysis (PI flow cytometry); assay type: cell-based, human; settings: GI50 concentration 2.75 μM, 48 h
Protocol: More details are presented in the SI.
Given that 3d has emerged as a well-balanced active compound that functions as both an anticancer agent and a multi-targeting protein kinase suppressor, it was of interest to gain a deeper understanding of how 3d inhibits the growth of cancer cells. A propidium iodide (PI) staining experiment was performed in this study to look at its effect on cell cycle distribution and apoptosis activation.[81,82]
This blocked cell cycle passage at the G0–G1 stage can stop cells from dividing and growing, which is in line with that shown by other tests about the ability of compound 3d to stop cell division and growth (Fig. 3). […]
minute reaction, 50 μl of Kinase-Glo Max reagent was added to each well. […] 10) Luminescence was measured using the microplate reader. […]
The protocol of the experiment depends on the dilution of the enzyme, substrate, ATP, and inhibitors in kinase buffer. […] Then, luminescence (integration time 0.5–1 second) was recorded according to the manufacturer’s instructions. […]
Further exploration of the cytotoxic activity of compound 3d was performed using propidium iodide (PI) flow cytomertric analysis to measure the extent of PI that binds to DNA of dead cells with permeable plasma membranes to determine cell cycle status in tissue culture quantitate cell death at all cell phases. […]

[6] = test system: NCI 60 cancer cell line panel; test: NCI 60 full panel summary
[7] = test system: CCRF-CEM; settings: Homo sapiens, CCRF-CEM
[8] = test system: MOLT-4
[9] = test system: RPMI-8226; settings: Homo sapiens, RPMI-8226
[10] = test system: HOP-92; settings: Homo sapiens, HOP-92
[11] = test system: NCI-H226
[12] = test system: NCI-H460
[13] = test system: SW-620
[14] = test system: SNB-75
[15] = test system: LOX IMVI
[16] = test system: MALME-3M
[17] = test system: SK-MEL-2
[18] = test system: SN12C
[19] = test system: TK-10
[20] = test system: UO-31; settings: Homo sapiens, UO-31
[21] = test system: MCF7
[22] = test system: MDA-MB-231/ATCC; settings: Homo sapiens
[23] = Homo sapiens, subpanel mean graph midpoint, read-out: MG-MID (GI50)
[24] = full panel MG-MID / subpanel MG-MID
[25] = single dose 10 μM, non-small lung carcinoma
[26] = single dose 10 μM, renal carcinoma

Structure (SMILES): c1ccc(-n2cc(C3CC(c4nc5ccccc5[nH]4)=NN3)c(-c3cc4ccccc4o3)n2)cc1 (stereo not shown) [3d, 3-(Benzofuran-2-yl)-4-(3-(1H-benzo[d]imidazol-2-yl)-4,5-dihydro-1H-pyrazol-5-yl)-1-phenyl-1H-pyrazole]
- GI50 [1, 23]: 3.92 µM
- Selectivity index [1, 24]: 1.07
- GI50 [2, 23]: 4.32 µM
- Selectivity index [2, 24]: 0.97
- GI50 [3, 23]: 4.93 µM
- Selectivity index [3, 24]: 0.85
- GI50 [4, 23]: 4.49 µM
- Selectivity index [4, 24]: 0.935
- cell percentage in the G2/M stage ([5]; control […]): 15.9%
- percentage of cells in the G0–G1 phase ([5]; untreated 48.39%): 61.03%
- GI50 ([6]; Homo sapiens, read-out: Full panel MG-MID (GI50), five-dose assay, mean graph midpoint over full panel): 4.2 µM
- CC50 ([6]; Homo sapiens, read-out: LC50): > 100 µM
- Mean GI% ([6]; single dose 10 μM, mean over the NCI 60 panel): 83.58%
- GI50 [7]: 3.11 µM
- GI50 ([8]; Homo sapiens, MOLT-4): 4.13 µM
- GI% ([8]; single dose 10 μM, leukemia): 88.75%
- GI50 [9]: 3.04 µM
- GI50 [10]: 4.78 µM
- GI50 ([11]; Homo sapiens, NCI-H226): 6.62 µM
- GI% [11, 25]: 34.35%
- GI50 ([12]; Homo sapiens, NCI-H460): 3.64 µM
- GI% [12, 25]: 97.07%
- GI50 ([13]; Homo sapiens, SW-620): 5.95 µM
- GI% ([13]; single dose 10 μM, colon cancer): 76.92%
- GI50 ([14]; Homo sapiens, SNB-75): 2.72 µM
- GI% ([14]; single dose 10 μM, CNS cancer): 65.51%
- GI50 ([15]; Homo sapiens, LOX IMVI): 3.71 µM
- GI% ([15]; single dose 10 μM, melanoma): 75.62%
- GI50 ([16]; Homo sapiens, Malme-3M): 6.19 µM
- GI% ([16]; single dose 10 μM, melanoma): 81.85%
- GI50 ([17]; Homo sapiens, SK-MEL-2): 2.53 µM
- GI% ([17]; single dose 10 μM, melanoma): 99.44%
- GI50 ([18]; Homo sapiens, SN12C): 3.42 µM
- GI% [18, 26]: 88.17%
- GI50 ([19]; Homo sapiens, TK-10): 4.97 µM
- GI% [19, 26]: 75.14%
- GI50 [20]: 2.1 µM
- GI50 ([21]; Homo sapiens, MCF7): 2.75 µM
- GI% ([21]; single dose 10 μM, breast carcinoma): 85.98%
- GI50 [22]: 4.78 µM
